In publication PMC9795544, “Identifying Novel Inhibitors for Hepatic Organic Anion Transporting Polypeptides by Machine Learning-Based Virtual Screening” (Journal of Chemical Information and Modeling, 2022):
Where two headings read alike, the source gives them in different places. One block for each compound: values may come before it.

How the values were obtained:
OATP1B1 [1] = biological target: T1, OATP1B1 (Homo sapiens, UniProt Q9Y6L6); test: Pyranine transport inhibition in A431 cells overexpressing OATP1B1; type: cell-based
T1 construct: expressed in transfected cells; host or cells: A431 cells
T1 sequence (Q9Y6L6 1-691): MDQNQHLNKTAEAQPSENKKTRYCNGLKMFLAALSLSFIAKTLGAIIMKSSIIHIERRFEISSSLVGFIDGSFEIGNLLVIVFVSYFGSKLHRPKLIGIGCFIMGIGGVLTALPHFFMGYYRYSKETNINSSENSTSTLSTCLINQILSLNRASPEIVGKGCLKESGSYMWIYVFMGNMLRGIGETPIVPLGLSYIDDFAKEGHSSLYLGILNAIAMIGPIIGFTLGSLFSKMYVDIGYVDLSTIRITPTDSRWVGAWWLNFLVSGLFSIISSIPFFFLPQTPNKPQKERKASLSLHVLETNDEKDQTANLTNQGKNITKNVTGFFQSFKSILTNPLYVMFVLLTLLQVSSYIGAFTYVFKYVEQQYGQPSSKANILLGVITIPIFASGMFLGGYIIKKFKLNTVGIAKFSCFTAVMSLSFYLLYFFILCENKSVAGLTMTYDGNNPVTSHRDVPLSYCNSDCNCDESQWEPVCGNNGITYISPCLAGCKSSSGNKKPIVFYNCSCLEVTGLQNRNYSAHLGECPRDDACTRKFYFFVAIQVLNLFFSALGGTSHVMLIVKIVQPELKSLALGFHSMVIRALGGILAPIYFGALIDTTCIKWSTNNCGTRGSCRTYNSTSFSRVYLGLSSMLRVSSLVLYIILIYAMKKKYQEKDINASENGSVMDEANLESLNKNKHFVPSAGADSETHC
Procedure: (§1) A431 cells overexpressing OATP1B1, OATP1B3, or OATP2B1 or their mock transfected controls were generated previously[30] and maintained in Dulbecco’s modified Eagle medium (DMEM, Gibco, Thermofisher Scientific, Waltham, MA, US) supplemented with 10% fetal bovine serum, 2 mM L-glutamine, 100 units/mL penicillin, and 100 μg/mL streptomycin. Expression and function of OATPs in the cell lines were checked regularly.
(§2) Interaction with OATP1B1, OATP1B3, or OATP2B1 was tested in an indirect transport assay using pyranine (8-hydroxypyrene-1,3,6-trisulfonic acid trisodium salt, H1529, Sigma, Merck, Budapest, Hungary) as the test substrate[31],[32] A431 cells overexpressing OATP1B1, OATP1B3, or OATP2B1 or their mock transfected controls were seeded on 96-well plates in a density of 8 × 10^4 cells per well in 200 μL of cell culture medium 1 day prior to the transport measurements. […] The transport reaction was started by the addition of 50 μL of uptake buffer containing pyranine in a final concentration of 10 μM (OATP1B1) or 20 μM (OATP1B3 and OATP2B1), and the cells were further incubated at 37 °C for 15 min (OATP1B1 and OATP2B1) or 30 min (OATP1B3). The reaction was stopped by removing the supernatant. After repeated washing with ice-cold PBS, fluorescence was determined in an Enspire plate reader (PerkinElmer, Waltham, MA) with excitation/emission wavelengths of 460/510 nm. OATP-dependent transport was calculated by extracting fluorescence measured in mock transfected cells and normalized to the fluorescence signal obtained in the absence of the tested compounds (100%). Experiments were repeated in at least three biological replicates.

OATP1B3 = biological target: T2, OATP1B3 (Homo sapiens, UniProt Q9NPD5); test: Pyranine transport inhibition in A431 cells overexpressing OATP1B3; type: cell-based; conditions: for IC50: read-out: IC50 (μM) OATP1B3
T2 construct: expressed in transfected cells; host or cells: A431 cells
T2 sequence (Q9NPD5 1-702): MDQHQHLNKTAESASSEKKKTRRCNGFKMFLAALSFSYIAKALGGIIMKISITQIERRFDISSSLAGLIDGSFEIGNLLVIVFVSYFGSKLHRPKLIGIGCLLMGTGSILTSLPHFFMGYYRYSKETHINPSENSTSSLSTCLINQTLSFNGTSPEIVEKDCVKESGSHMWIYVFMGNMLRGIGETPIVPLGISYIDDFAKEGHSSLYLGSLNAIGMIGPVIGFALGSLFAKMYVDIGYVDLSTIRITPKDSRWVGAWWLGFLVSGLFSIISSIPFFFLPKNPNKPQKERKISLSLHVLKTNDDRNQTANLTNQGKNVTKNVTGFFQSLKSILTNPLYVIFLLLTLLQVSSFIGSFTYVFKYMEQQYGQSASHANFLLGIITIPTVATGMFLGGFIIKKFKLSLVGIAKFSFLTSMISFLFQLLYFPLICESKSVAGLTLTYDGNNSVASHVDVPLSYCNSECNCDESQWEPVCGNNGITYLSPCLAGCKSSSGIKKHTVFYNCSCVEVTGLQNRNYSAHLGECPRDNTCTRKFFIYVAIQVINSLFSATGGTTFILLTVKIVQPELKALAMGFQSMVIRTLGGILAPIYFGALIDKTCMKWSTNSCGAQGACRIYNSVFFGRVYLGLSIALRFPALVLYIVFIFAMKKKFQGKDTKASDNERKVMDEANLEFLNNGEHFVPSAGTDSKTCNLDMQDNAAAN
Procedure: as §1, §2

OATP2B1 [2] = biological target: T3, OATP2B1 (Homo sapiens, UniProt O94956); test: Pyranine transport inhibition in A431 cells overexpressing OATP2B1; type: cell-based; conditions: for IC50: read-out: IC50 (μM) OATP2B1
T3 construct: expressed in transfected cells; host or cells: A431 cells
T3 sequence (O94956 1-709): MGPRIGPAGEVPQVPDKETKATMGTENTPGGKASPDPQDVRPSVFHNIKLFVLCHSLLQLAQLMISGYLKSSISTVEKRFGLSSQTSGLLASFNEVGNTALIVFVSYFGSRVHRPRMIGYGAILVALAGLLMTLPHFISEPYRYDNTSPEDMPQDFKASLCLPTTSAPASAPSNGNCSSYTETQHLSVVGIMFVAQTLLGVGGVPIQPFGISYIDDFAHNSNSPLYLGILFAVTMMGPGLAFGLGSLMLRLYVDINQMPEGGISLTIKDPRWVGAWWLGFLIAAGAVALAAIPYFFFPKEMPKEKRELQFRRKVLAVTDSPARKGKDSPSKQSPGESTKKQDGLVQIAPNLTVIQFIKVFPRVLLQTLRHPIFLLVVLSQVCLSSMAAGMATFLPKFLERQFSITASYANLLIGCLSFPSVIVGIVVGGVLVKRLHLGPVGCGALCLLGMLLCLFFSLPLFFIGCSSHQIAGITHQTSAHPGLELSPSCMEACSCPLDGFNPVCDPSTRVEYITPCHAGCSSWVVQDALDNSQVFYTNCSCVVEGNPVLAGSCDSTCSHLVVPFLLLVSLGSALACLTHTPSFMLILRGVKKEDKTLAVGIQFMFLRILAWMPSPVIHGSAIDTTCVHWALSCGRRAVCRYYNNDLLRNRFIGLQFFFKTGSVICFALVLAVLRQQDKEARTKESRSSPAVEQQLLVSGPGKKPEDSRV
Procedure: as §1, §2

OATP2B1 [3] = test system: OATP2B1; design: method as in earlier work; conditions: ref 1 (Karlgren et al.); cited from earlier work
OATP2B1 [4] = test system: OATP2B1; design: method as in PMID 33932771; conditions: highest affinity inhibitor reported in the literature; cited from earlier work
OATP1B1 [5] = test system: OATP1B1; design: method as in earlier work; conditions: ref 1 (Karlgren et al.); cited from earlier work
[6] = full dose-response curve, eight concentrations, Hill1 fit
[7] = initial three-point screen (1, 10, 100 μM), category by concentration needed for 50% inhibition, pyranine 10 μM, 15 min, pH 5.5
[8] = initial three-point screen (1, 10, 100 μM), category by concentration needed for 50% inhibition, pyranine 20 μM, 30 min, pH 5.5
[9] = initial three-point screen (1, 10, 100 μM), category by concentration needed for 50% inhibition, pyranine 20 μM, 15 min, pH 5.5
[10] = initial three-point screen (1, 10, 100 μM), category by concentration needed for 50% inhibition, pyranine 10 μM, 15 min, pH 5.5, read-out: IC50 (μM) OATP1B1

SMILES: CCC(C)c1ccc(-n2c(SCC(=O)N3c4ccccc4CC3C)nc3ccccc3c2=O)cc1 (stereo not shown) [G4, CCC(C)c1ccc(cc1)N2C(=Nc3ccccc3C2=O)SCC(=O)N4C(C)Cc5ccccc45]
- IC50 (μM) OATP1B1 (OATP1B1 [1]; [6]): no effect
- IC50 (μM) OATP1B1 (OATP1B1 [1]; [7]): no effect
- IC50 (μM) OATP1B3 (OATP1B3; [6]): no effect
- IC50 (μM) OATP1B3 (OATP1B3; [8]): no effect
- IC50 (OATP2B1 [2]; [6]): ~6 µM
- IC50 (OATP2B1 [2]; [9]): 1 to 10 µM

- IC50 (OATP1B1 [1]; [10]): > 10 µM
- IC50 (OATP1B3; [8]): 1 to 10 µM
- IC50 (OATP2B1 [2]; [9]): 1 to 10 µM
SMILES: COc1cc2c(cc1NC(=O)CN1C(=O)NC(Cc3c[nH]c4ccccc34)C1=O)oc1ccccc12 (stereo not shown) [G5, COc1cc2c(oc3ccccc23)cc1NC(=O)CN4C(=O)NC(Cc5c[nH]c6ccccc56)C4=O]

- IC50 (μM) OATP1B1 (OATP1B1 [1]; [7]): no effect
- IC50 (μM) OATP1B3 (OATP1B3; [8]): no effect
- IC50 (OATP2B1 [2]; [9]): > 10 µM
SMILES: Cc1ccc(N2C(=O)/C(=C\Nc3nc4ccccc4nc3N3CCCC3)c3ccccc3C2=O)c(C)c1 [G6, Cc1ccc(N2C(=O)\C(=C/Nc3nc4ccccc4nc3N5CCCC5)\c6ccccc6C2=O)c(C)c1]

- IC50 (OATP1B1 [1]; [10]): > 10 µM
- IC50 (OATP1B3; [8]): > 10 µM
- IC50 (OATP2B1 [2]; [9]): 1 to 10 µM
SMILES: O=C(/C=C/c1cn(Cc2ccccc2)nn1)N1CCCC(c2nc3ccccc3s2)C1 (stereo not shown) [H2, O=C(\C=C\c1cn(Cc2ccccc2)nn1)N3CCCC(C3)c4nc5ccccc5s4]

- IC50 (μM) OATP1B1 (OATP1B1 [1]; [7]): no effect
- IC50 (μM) OATP1B3 (OATP1B3; [8]): no effect
- IC50 (μM) OATP2B1 (OATP2B1 [2]; [9]): no effect
SMILES: Cc1cc(C)c(C(=O)CSc2nc3ccccc3c(=O)n2Cc2ccc(F)cc2)c(C)c1 [H4, Cc1cc(C)c(C(=O)CSC2=Nc3ccccc3C(=O)N2Cc4ccc(F)cc4)c(C)c1]

- IC50 (OATP1B1 [1]; full dose-response curve, eight concentrations, Hill1 fit, read-out: IC50 (μM) OATP1B1): ~25 µM
- IC50 at 15 min (OATP1B1 [1]; human, pH 5.5, probe pyranine 10 μM, initial three-point screen (1, 10, 100 μM), category by concentration needed for 50% inhibition, pyranine 10 μM, 15 min, pH 5.5, read-out: IC50 (μM) OATP1B1): > 10 µM
- IC50 (OATP1B3; [6]): 6.95 µM
- IC50 at 30 min (OATP1B3; human, pH 5.5, probe pyranine 20 μM, initial three-point screen (1, 10, 100 μM), category by concentration needed for 50% inhibition, pyranine 20 μM, 30 min, pH 5.5): > 10 µM
- fold lower affinity on OATP1B3 than on OATP2B1 (OATP1B3; ratio of IC50 OATP1B3 / OATP2B1): 18 fold
- IC50 (OATP2B1 [2]; [6]): 0.39 µM
- IC50 (OATP2B1 [2]; [9]): < 1 µM
SMILES: COC(=O)c1c(NC(=O)CN2C(=O)NC3(CCc4ccccc4C3)C2=O)sc2c1CCCCC2 (stereo not shown) [H5, COC(=O)c1c2CCCCCc2sc1NC(=O)CN3C(=O)NC4(CCc5ccccc5C4)C3=O]

SMILES: CC(=O)Nc1ccc(S(=O)(=O)Nc2nc3ccccc3nc2NCc2ccccc2)cc1 [H6, CC(=O)Nc1ccc(cc1)S(=O)(=O)Nc2nc3ccccc3nc2NCc4ccccc4]
- IC50 (μM) OATP1B1 (OATP1B1 [1]; [7]): no effect
- IC50 (μM) OATP1B3 (OATP1B3; [8]): no effect
- IC50 (OATP2B1 [2]; [9]): > 10 µM

SMILES: C#Cc1cccc(Nc2ncnc3cc(OCCOC)c(OCCOC)cc23)c1 [erlotinib]
- IC50 (OATP2B1 [3]): 0.55 µM

SMILES: C[C@]12CC[C@@H]3c4cc(P(=O)(O)O)ccc4CC[C@H]3[C@@H]1CCC2=O [estra-1,3,5(10)-trien-17-on-2-ylphosphonate]
- IC50 (OATP2B1 [4]): 0.041 µM

SMILES: CC[C@H](C)C(=O)O[C@H]1C[C@H](O)C=C2C=C[C@H](C)[C@H](CC[C@@H](O)C[C@@H](O)CC(=O)O)[C@H]21 [pravastatin]
- IC50 (OATP1B1 [5]): 3.6 µM
